According to the supplement of paper PMC10307832:

Columns and labels:
Assay in all cases: relative viability (nuclei count vs DMSO), 5 days (fraction); higher = more cells survive
[1] = compound: C1CSC2=C(C(=O)N1)SC3=C2C=C(C=C3)O [kb NB 142-70] + CS(=O)(=O)CCNCc1ccc(-c2ccc3ncnc(Nc4ccc(OCc5cccc(F)c5)c(Cl)c4)c3c2)o1 [Lapatinib] (partner 2 µM)
Procedure, shortened: (§1)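 Each reported value is a median over duplicate plates. It expresses relative viability: treated-well nuclei count divided by vehicle-well nuclei count. Lung cancer cell lines in 1536-well plates were dosed by pin tool a day after seeding, alone with one drug or with a fixed anchor-drug dose plus five library-drug doses (not always all listed) in √10 steps, and nuclei were counted after 5 days.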

[2] = compound: NCC(=O)Nc1ccc(-n2nc(C(F)(F)F)cc2-c2ccc3c(ccc4ccccc43)c2)cc1 + C[C@@H](Oc1cc(-c2cnn(C3CCNCC3)c2)cnc1N)c1c(Cl)ccc(F)c1Cl [Crizotinib] (partner 1 µM)
Procedure, shortened: as §1

[3] = compound: NCC(=O)Nc1ccc(-n2nc(C(F)(F)F)cc2-c2ccc3c(ccc4ccccc43)c2)cc1 + O=C(c1cc(Cc2n[nH]c(=O)c3ccccc23)ccc1F)N1CCN(C(=O)C2CC2)CC1 [Olaparib] (partner 8 µM)
Procedure, shortened: as §1

[4] = compound: C1CSC2=C(C(=O)N1)SC3=C2C=C(C=C3)O [kb NB 142-70] + CC(=O)Nc1cccc(-n2c(=O)n(C3CC3)c(=O)c3c(Nc4ccc(I)cc4F)n(C)c(=O)c(C)c32)c1 [Trametinib] (partner 0.02 µM)
Procedure, shortened: as §1

[5] = compound: C1CSC2=C(C(=O)N1)SC3=C2C=C(C=C3)O [kb NB 142-70] + Cc1nc(Nc2ncc(C(=O)Nc3c(C)cccc3Cl)s2)cc(N2CCN(CCO)CC2)n1 [Dasatinib] (partner 0.075 µM)
Procedure, shortened: as §1

| Cell Line | relative viability ([1]; first compound 0.1 µM) | relative viability ([1]; first compound 1 µM) | relative viability ([1]; first compound 3.162 µM) | relative viability ([2]; first compound 0.02 µM) | relative viability ([2]; first compound 0.06325 µM) | relative viability ([2]; first compound 0.2 µM) | relative viability ([2]; first compound 0.6325 µM) | relative viability ([2]; first compound 2 µM) | relative viability ([3]; first compound 0.02 µM) | relative viability ([3]; first compound 0.06325 µM) | relative viability ([3]; first compound 0.2 µM) | relative viability ([3]; first compound 0.6325 µM) | relative viability ([3]; first compound 2 µM) | relative viability ([4]; first compound 0.1 µM) | relative viability ([4]; first compound 1 µM) | relative viability ([4]; first compound 3.162 µM) | relative viability ([5]; first compound 0.1 µM) | relative viability ([5]; first compound 1 µM) | relative viability ([5]; first compound 3.162 µM) |
| --- | --- | --- | --- | --- | --- | --- | --- | --- | --- | --- | --- | --- | --- | --- | --- | --- | --- | --- | --- |
| IA-LM | 0.771 | 0.95 | 0.787 | 0.775 | 0.573 | 1.02 | 0.797 | 0.742 | 0.986 | 0.722 | 0.951 | 0.896 | 1 |  |  |  |  |  |  |
| LCLC-103H |  |  |  | 1.16 | 1.01 | 1.1 | 1.02 | 0.977 | 0.685 | 0.793 | 0.787 | 0.765 | 0.752 | 0.672 | 0.654 | 0.803 | 0.459 | 0.521 | 0.505 |
| NCI-H441 |  |  |  | 1.08 | 0.666 | 0.73 | 0.6 | 0.749 | 0.546 | 0.58 | 0.52 | 0.493 | 0.598 | 0.473 | 0.383 | 0.287 | 0.634 | 0.575 | 0.366 |
| NCI-H522 |  |  |  |  |  |  |  |  | 0.666 | 0.777 | 0.721 | 0.685 | 0.656 | 0.799 | 0.617 | 0.566 | 1.03 | 0.856 | 0.704 |
| NCI-H1299 | 0.919 | 1.02 | 1 | 0.97 | 0.969 | 0.991 | 0.944 | 1 | 0.96 | 0.916 | 0.977 | 0.918 | 0.998 |  |  |  |  |  |  |
| NCI-H1395 | 1.23 | 1.14 | 0.816 |  |  |  |  |  | 0.483 | 0.469 | 0.469 | 0.519 | 0.437 | 1.02 | 0.891 | 1.02 | 0.393 | 0.443 | 0.43 |
| NCI-H1563 | 0.969 | 0.889 | 0.944 | 0.887 | 0.91 | 0.881 | 0.835 | 0.997 |  |  |  |  |  |  |  |  | 0.464 | 0.467 | 0.424 |
| NCI-H1648 |  |  |  |  |  |  |  |  | 0.577 | 1.03 | 1.02 | 0.649 | 0.56 | 0.459 | 0.551 | 0.417 |  |  |  |
| NCI-H1703 | 1.1 | 1.08 | 1.31 | 0.593 | 0.657 | 0.924 | 0.621 | 0.951 | 0.498 | 0.356 | 0.644 | 0.367 | 0.368 |  |  |  |  |  |  |
| NCI-H1793 | 0.57 | 0.749 | 0.861 |  |  |  |  |  | 1.05 | 0.957 | 0.921 | 0.852 | 1.02 | 0.399 | 0.542 | 0.463 | 0.388 | 0.424 | 0.443 |
| NCI-H2342 |  |  |  |  |  |  |  |  | 0.623 | 0.477 | 0.434 | 0.447 | 0.422 | 0.804 | 0.857 | 0.903 | 0.349 | 0.311 | 0.255 |
| SW 900 |  |  |  |  |  |  |  |  | 0.86 | 0.881 | 0.88 | 0.693 | 0.994 | 0.73 | 1.05 | 0.682 | 0.517 | 0.478 | 0.208 |
